Laboratory results: publication PMC10648937, “Drug distribution and efficacy of the DprE1 inhibitor BTZ-043 in the C3HeB/FeJ mouse tuberculosis model” (Antimicrobial Agents and Chemotherapy, 2023)
Several values for one entry are separate records, joined by “and”; a condition that tells them apart may be missing. Identical values can stand only once. Like-named read-outs stand apart in the source and are kept apart here.

How the values were obtained:
Mtb Erdman [1] = experiment: Semi-quantitative MBC (sqMBC) assay; format: cell-based, Mycobacterium tuberculosis; settings: M. tuberculosis Erdman; for sqMBC: 10 d incubation, 99% (2-log10) CFU reduction of inoculum; for sqMBC + huSA: with 4% huSA
Mtb Erdman [2] = experiment: Broth microdilution MIC (Alamar Blue endpoint), with and without 4% huSA (serum-shift assay)
[3] = system: non-replicating Mtb in rabbit caseum; design: method as in PMID 34370580; settings: similarly reported previously; cited from earlier work
Mtb = system: Mtb; design: method as in PMID 34370580; settings: C3HeB/FeJ mice, 8 weeks (5 of 7 days per week), 5 and 20 mg/kg QD; cited from earlier work
Mtb Erdman [4] = experiment: Efficacy in spleens of Mtb Erdman-infected C3HeB/FeJ mice (CFU, kill rates); format: in vivo, Mycobacterium tuberculosis; settings: for kill rate k[0-28] (SE), spleens: day 0 to 28; for kill rate k[0-56] (SE), spleens: day 0 to 56; for kill rate k[28-56] (SE), spleens: day 28 to 56
[5] = system: non-replicating Mtb in rabbit caseum; experiment: Explanted rabbit caseum MBC assay; format: cell-based, Mycobacterium tuberculosis; settings: test concentrations up to 512 µM, 7 days
[6] = system: intracellular mycobacteria in macrophages; design: method as in PMID 19299584; settings: cited from earlier work
[7] = system: Mtb Erdman-infected C3HeB/FeJ mice; experiment: Pulmonary histopathology (pathologist scores and LIRA) in C3HeB/FeJ mice; format: in vivo, mouse
[8] = human; cited from earlier work
Mtb Erdman [9] = experiment: In vitro kill kinetics under replicating conditions; format: cell-based, Mycobacterium tuberculosis; settings: 8× and 20× MIC, CFU/mL over 14 days
[10] = C3HeB/FeJ, mouse, in vivo, 1 h
[11] = Plasma and lesion drug levels by LCM-LC/MS-MS in C3HeB/FeJ mice; settings: 100 mg/kg
Mtb Erdman [12] = experiment: Efficacy in lungs of Mtb Erdman-infected C3HeB/FeJ mice (CFU, kill rates); format: in vivo, Mycobacterium tuberculosis; settings: for kill rate k[0-28] (SE), lungs, Type I (TI) subset / kill rate k[0-56] (SE), lungs, Type I (TI) subset / kill rate k[28-56] (SE), lungs, Type I (TI) subset: TI lesions; for kill rate k[0-28] (SE), lungs, Type III (TIII) subset / kill rate k[0-56] (SE), lungs, Type III (TIII) subset / kill rate k[28-56] (SE), lungs, Type III (TIII) subset: TIII lesions; for kill rate k[0-28] (SE), lungs: day 0 to 28; for kill rate k[0-56] (SE), lungs: day 0 to 56; for kill rate k[28-56] (SE), lungs: day 28 to 56
[13] = system: non-growing streptomycin-dependent Mtb strain 18b; design: method as in PMID 20679505; settings: cited from earlier work
[14] = Mycobacterium tuberculosis, ERDMAN
[15] = Mycobacterium tuberculosis, ERDMAN, read-out: MIC + huSA
[16] = 200 mg/kg QD, 8 weeks, group average
[17] = 200 mg/kg QD, 8 weeks, mice Mx I to Mx L
[18] = 50 mg/kg QD, 8 weeks of treatment
[19] = 200 mg/kg QD, 8 weeks of treatment

O=C1CCc2c(OC[C@]3(O)CCN(c4c(F)cc(Cl)cc4F)C[C@H]3O)ccc(F)c2N1 [OPC-167832]
sqMBC (Mtb Erdman [1]): 0.001 µg/mL
sqMBC + huSA (Mtb Erdman [1]): 0.016 µg/mL
MIC (Mtb Erdman [2]; [14]): 0.5 ng/mL
MIC (Mtb Erdman [2]; [15]): 8 ng/mL
shift in MIC in the presence of huSA (Mtb Erdman [2]; physiologic levels (4%) of huSA): 16 fold
activity against non-replicating Mtb in rabbit caseum MBC assay [3]: lacked appreciable activity
average lung CFU reduction compared to untreated controls (Mtb): 3 log10

C[C@H]1COC2(CCN(c3nc(=O)c4cc(C(F)(F)F)cc([N+](=O)[O-])c4s3)CC2)O1 [BTZ-043]
sqMBC (Mtb Erdman [1]): 0.016 µg/mL
sqMBC + huSA (Mtb Erdman [1]): 0.03 µg/mL
kill rate k[0-28] (SE), spleens (Mtb Erdman [4]; 50 mg/kg QD): 0.048 (0.006) log10CFU per day
kill rate k[0-56] (SE), spleens (Mtb Erdman [4]; 50 mg/kg QD): 0.026 (0.004) log10CFU per day
kill rate k[28-56] (SE), spleens (Mtb Erdman [4]; 50 mg/kg QD): 0.004 (0.007) log10CFU per day
kill rate k[0-28] (SE), spleens (Mtb Erdman [4]; 100 mg/kg QD): 0.046 (0.006) log10CFU per day
kill rate k[0-56] (SE), spleens (Mtb Erdman [4]; 100 mg/kg QD): 0.041 (0.003) log10CFU per day
kill rate k[28-56] (SE), spleens (Mtb Erdman [4]; 100 mg/kg QD): 0.036 (0.006) log10CFU per day
kill rate k[0-28] (SE), spleens (Mtb Erdman [4]; 200 mg/kg QD): 0.057 (0.005) log10CFU per day
kill rate k[0-56] (SE), spleens (Mtb Erdman [4]; 200 mg/kg QD): 0.046 (0.003) log10CFU per day
kill rate k[28-56] (SE), spleens (Mtb Erdman [4]; 200 mg/kg QD): 0.034 (0.006) log10CFU per day
mice with spleen CFU below the lower limit of detection (Mtb Erdman [4]; 200 mg/kg, 8 weeks, limit 1.7 log10 CFU/spleen): 4 out of 8
effect on spleen bacterial load (Mtb Erdman [4]; 4 weeks of treatment, all dose groups, Dunnett's P = 0.003 to 0.0001): statistically significant reductions
effect on spleen burdens (Mtb Erdman [4]; 8 weeks of treatment, Dunnett's P < 0.0001): statistically significant reductions
protein binding indicated by serum-shift MIC assay (Mtb Erdman [2]; 4% huSA): ~ 75%
MIC (Mtb Erdman [2]; M. tuberculosis Erdman, 7H9 media): 8 ng/mL
MIC (Mtb Erdman [2]; [14]): 8 ng/mL
MIC (Mtb Erdman [2]; [15]): 30 ng/mL
activity against non-replicating Mtb in rabbit caseum MBC assay [5]: lacked appreciable activity
deduced MIC against intracellular mycobacteria in macrophages [6]: < 10 ng/mL
percent lung involvement, Healthy Tissue (LIRA), average [7, 16]: 73.70%
percent lung involvement, Type I - Caseum (LIRA), average [7, 16]: 10% and 10.01%
percent lung involvement, Type I - Rim (LIRA), average [7, 16]: 4.85%
percent lung involvement, Type II (LIRA), average [7, 16]: 0%
percent lung involvement, Type III (LIRA), average [7, 16]: 11% and 11.44%
percent lung involvement, Healthy Tissue (LIRA), individual mice [7, 17]: 90.59% and 66.70% and 47.22% and 90.31%
percent lung involvement, Type I - Caseum (LIRA), individual mice [7, 17]: 2.82% and 6.51% and 30.69% and 0.00%
percent lung involvement, Type I - Rim (LIRA), individual mice [7, 17]: 3.75% and 4.76% and 10.89% and 0.00%
percent lung involvement, Type II (LIRA), individual mice [7, 17]: 0.00%
percent lung involvement, Type III (LIRA), individual mice [7, 17]: 2.83% and 22.03% and 11.21% and 9.69%
histology scores by board-certified pathologist ([7]; 200 mg/kg, 8 weeks of treatment, compared to untreated mice): improved overall histology scores
plasma protein binding [8]: 99.4%
kill kinetics (cidality) (Mtb Erdman [9]): cidality
drug level in cellular lesion over the serum-shifted MIC [10]: 121 fold
drug level in lung parenchyma over the serum-shifted MIC [10]: 228 fold
drug level in plasma over the serum-shifted MIC [10]: 237 fold
drug levels in plasma, lung parenchyma, cellular lesion and cellular-caseum interface relative to serum-shifted MIC ([11]; 2.5 weeks, end of the dosing interval (24 h)): fell below the serum-shifted MIC
drug level in cellular-caseum interface over the serum-shifted MIC ([11]; 5 of 7 days per week for 2.5 weeks, Tmax (1 h)): 93 fold
lung CFU reduction from the start of treatment (Mtb Erdman [12]; [18]): ~ 1.04 log10 CFU
lung CFU reduction versus untreated (Mtb Erdman [12]; [18]): ~ 2.43 log10 CFU
kill rate k[0-28] (SE), lungs, Type I (TI) subset (Mtb Erdman [12]; 50 mg/kg QD): 0.011 (0.010) log10CFU per day
kill rate k[0-56] (SE), lungs, Type I (TI) subset (Mtb Erdman [12]; 50 mg/kg QD): 0.023 (0.008) log10CFU per day
kill rate k[28-56] (SE), lungs, Type I (TI) subset (Mtb Erdman [12]; 50 mg/kg QD): 0.032 (0.015) log10CFU per day
kill rate k[0-28] (SE), lungs, Type III (TIII) subset (Mtb Erdman [12]; 50 mg/kg QD): 0.063 (0.007) log10CFU per day
kill rate k[0-56] (SE), lungs, Type III (TIII) subset (Mtb Erdman [12]; 50 mg/kg QD): 0.039 (0.007) log10CFU per day
kill rate k[28-56] (SE), lungs, Type III (TIII) subset (Mtb Erdman [12]; 50 mg/kg QD): 0.005 (0.010) log10CFU per day
kill rate k[0-28] (SE), lungs (Mtb Erdman [12]; 50 mg/kg QD): 0.022 log10CFU per day and 0.022 (0.018) log10CFU per day
kill rate k[0-56] (SE), lungs (Mtb Erdman [12]; 50 mg/kg QD): 0.019 (0.009) log10CFU per day
kill rate k[28-56] (SE), lungs (Mtb Erdman [12]; 50 mg/kg QD): 0.015 log10CFU per day and 0.015 (0.021) log10CFU per day
kill rate k[0-28] (SE), lungs, Type I (TI) subset (Mtb Erdman [12]; 100 mg/kg QD): 0.011 (0.011) log10CFU per day
kill rate k[0-56] (SE), lungs, Type I (TI) subset (Mtb Erdman [12]; 100 mg/kg QD): 0.047 (0.011) log10CFU per day
kill rate k[28-56] (SE), lungs, Type I (TI) subset (Mtb Erdman [12]; 100 mg/kg QD): 0.078 (0.017) log10CFU per day
kill rate k[0-28] (SE), lungs, Type III (TIII) subset (Mtb Erdman [12]; 100 mg/kg QD): 0.041 (0.007) log10CFU per day
kill rate k[0-56] (SE), lungs, Type III (TIII) subset (Mtb Erdman [12]; 100 mg/kg QD): 0.022 (0.005) log10CFU per day
kill rate k[28-56] (SE), lungs, Type III (TIII) subset (Mtb Erdman [12]; 100 mg/kg QD): 0.003 (0.015) log10CFU per day
kill rate k[0-28] (SE), lungs (Mtb Erdman [12]; 100 mg/kg QD): 0.006 log10CFU per day and 0.006 (0.013) log10CFU per day
kill rate k[0-56] (SE), lungs (Mtb Erdman [12]; 100 mg/kg QD): 0.031 (0.007) log10CFU per day
kill rate k[28-56] (SE), lungs (Mtb Erdman [12]; 100 mg/kg QD): 0.056 log10CFU per day and 0.056 (0.015) log10CFU per day
lung CFU reduction from the start of treatment (Mtb Erdman [12]; [19]): ~ 2.59 log10 CFU
lung CFU reduction versus untreated (Mtb Erdman [12]; [19]): ~ 3.98 log10 CFU
kill rate k[0-28] (SE), lungs, Type I (TI) subset (Mtb Erdman [12]; 200 mg/kg QD): 0.023 (0.011) log10CFU per day
kill rate k[0-56] (SE), lungs, Type I (TI) subset (Mtb Erdman [12]; 200 mg/kg QD): 0.042 (0.009) log10CFU per day
kill rate k[28-56] (SE), lungs, Type I (TI) subset (Mtb Erdman [12]; 200 mg/kg QD): 0.062 (0.014) log10CFU per day
kill rate k[0-28] (SE), lungs, Type III (TIII) subset (Mtb Erdman [12]; 200 mg/kg QD): 0.019 (0.009) log10CFU per day
kill rate k[0-56] (SE), lungs, Type III (TIII) subset (Mtb Erdman [12]; 200 mg/kg QD): 0.049 (0.005) log10CFU per day
kill rate k[28-56] (SE), lungs, Type III (TIII) subset (Mtb Erdman [12]; 200 mg/kg QD): 0.079 (0.015) log10CFU per day
kill rate k[0-28] (SE), lungs (Mtb Erdman [12]; 200 mg/kg QD): 0.005 log10CFU per day and 0.005 (0.010) log10CFU per day
kill rate k[0-56] (SE), lungs (Mtb Erdman [12]; 200 mg/kg QD): 0.046 (0.008) log10CFU per day
kill rate k[28-56] (SE), lungs (Mtb Erdman [12]; 200 mg/kg QD): 0.087 log10CFU per day and 0.087 (0.013) log10CFU per day
effect on lung bacterial load (Mtb Erdman [12]; 4 weeks of treatment, all dose groups (50, 100, 200 mg/kg), Dunnett's P = 0.002 to 0.03): statistically significant reductions
effect on lung bacterial load (Mtb Erdman [12]; 8 weeks of treatment, all dose groups, Dunnett's P < 0.0001): statistically significant reduction
activity against non-growing Mtb strain 18b following depletion of streptomycin [13]: limited activity

CC(=O)NC[C@H]1CN(c2ccc(N3CCOCC3)c(F)c2)C(=O)O1 [linezolid]
sqMBC (Mtb Erdman [1]): > 8 µg/mL
MIC (Mtb Erdman [2]; [14]): 1000 ng/mL
MIC (Mtb Erdman [2]; [15]): 1000 ng/mL
